In EP0195316A1, “Quinolonecarboxylic acid derivatives” (KYORIN PHARMACEUTICAL CO., LTD., priority 1985, dated 1986):
≈ marks a conversion by molar mass, not a printed value. Read-outs that look alike come from different tables or passages of the source.

Assays:
[1] = test system: Staphylococcus aureus 209 P; experiment: MIC, in vitro antibacterial activity (standard strains); assay type: cell-based; conditions: 10^6 cells/ml, Gram +
[2] = test system: S. epidermidis IID 866; experiment: as above; assay type: cell-based; conditions: Staphylococcus epidermidis, IID866; S. epidermidis IID 866, 10^6 cells/ml, Gram +
[3] = test system: Streptococcus pyogenes (S-8); experiment: as above; assay type: cell-based; conditions: Streptococcus pyogenes (S-8), 10^6 cells/ml, Gram +; read-out: MIC
[4] = test system: E. faecalis IID 682; experiment: as above; assay type: cell-based; conditions: Enterococcus faecalis, IID682; E. faecalis IID 682, 10^6 cells/ml, Gram +
[5] = test system: Proteus vulgaris IFO 3167; experiment: as above; assay type: cell-based; conditions: Proteus vulgaris, IFO3167
[6] = test system: P. morganii IID 602; experiment: as above; assay type: cell-based; conditions: Morganella morganii, IID602; P. morganii IID 602, 10^6 cells/ml, Gram -
[7] = test system: Klebsiella pneumoniae KY(GN)6445; experiment: as above; assay type: cell-based
[8] = test system: Enterobacter cloacae IID 977; experiment: as above; assay type: cell-based; conditions: IID977; Enterobacter cloacae IID 977, 10^6 cells/ml, Gram -
[9] = test system: Citrobacter freundii IID 976; experiment: as above; assay type: cell-based; conditions: IID976
[10] = test system: Pseudomonas aeruginosa V-1; experiment: as above; assay type: cell-based; conditions: V1; Pseudomonas aeruginosa V-1, 10^6 cells/ml, Gram -
[11] = test system: Acinetobacter anitratus IID 876; experiment: as above; assay type: cell-based; conditions: Acinetobacter calcoaceticus, IID876; Acinetobacter anitratus IID 876, 10^6 cells/ml, Gram -
[12] = test system: Alcaligenes faecalis 0104002; experiment: as above; assay type: cell-based; conditions: Alcaligenes faecalis 0104002, 10^6 cells/ml, Gram -; read-out: MIC
[13] = test system: B. fragilis 0558; experiment: as above; assay type: cell-based; conditions: Bacteroides fragilis; B. fragilis 0558, 10^6 cells/ml, Gram -
[14] = test system: B. thetaiotaomicron (0661); experiment: as above; assay type: cell-based; conditions: Bacteroides thetaiotaomicron; B. thetaiotaomicron (0661), 10^6 cells/ml, Gram -; read-out: MIC
[15] = test system: Fusobacterium necrophorum S-45; experiment: as above; assay type: cell-based; conditions: S45; Fusobacterium necrophorum S-45, 10^6 cells/ml, Gram -
[16] = test system: Eubacterium lentum GAI 5242; experiment: as above; assay type: cell-based; conditions: Eggerthella lenta, GAI5242; Eubacterium lentum GAI 5242, 10^6 cells/ml, Gram +
[17] = test system: Propionibacterium acens 11828; experiment: as above; assay type: cell-based; conditions: Propionibacterium acens 11828, 10^6 cells/ml, Gram +
[18] = test system: C. perfringens KYA 13123; experiment: microbe, parasite or virus in culture; assay type: cell-based; conditions: Clostridium perfringens, KYA13123
[19] = test system: C. ramosum; experiment: MIC, in vitro antibacterial activity (standard strains); assay type: cell-based; conditions: Thomasclavelia ramosa, 10^6 cells/ml, Gram +
[20] = test system: Peptostreptococcus anaerobius KYA 27337; experiment: as above; assay type: cell-based; conditions: KYA27337; Peptostreptococcus anaerobius KYA 27337, 10^6 cells/ml, Gram +
[21] = test system: Pst. microns UPI 5464-1; experiment: as above; assay type: cell-based; conditions: Pst. microns UPI 5464-1, 10^6 cells/ml, Gram +
[22] = test system: MR-S. aureus; experiment: MIC, in vitro antibacterial activity (clinical isolates); assay type: cell-based; conditions: Staphylococcus aureus, No. of strains 46
[23] = test system: S. pyogenes; experiment: as above; assay type: cell-based; conditions: Streptococcus pyogenes; clinical isolates S. pyogenes, No. of strains 6; read-out: MIC
[24] = test system: B. catarrhalis; experiment: as above; assay type: cell-based; conditions: Moraxella catarrhalis; clinical isolates B. catarrhalis, No. of strains 21; read-out: MIC
[25] = test system: E. coli; experiment: as above; assay type: cell-based; conditions: Escherichia coli, No. of strains 25
Procedure: (§1) Minimal inhibitory concentrations (MICs) were determined in accordance with the method recommended by Japan Society of Chemotherapy.

[26] = test system: S. aureus; experiment: as above; assay type: cell-based; conditions: Staphylococcus aureus, No. of strains 21
Procedure: as §1

[27] = test system: P. vulgaris; experiment: as above; assay type: cell-based; conditions: Proteus vulgaris, No. of strains 6
[28] = test system: M. morganii; experiment: as above; assay type: cell-based; conditions: Morganella morganii, No. of strains 8
[29] = test system: P. aeruginosa; experiment: as above; assay type: cell-based; conditions: Pseudomonas aeruginosa; clinical isolates P. aeruginosa, No. of strains 27; read-out: MIC
[30] = test system: P. maltophilia; experiment: as above; assay type: cell-based; conditions: Stenotrophomonas maltophilia, No. of strains 9
[31] = test system: Campylobacter jejuni; experiment: as above; assay type: cell-based; conditions: No. of strains 20
[32] = test system: S. aureus 209 P; assay type: cell-based
[33] = test system: Bacteroides fragilis 2; experiment: Experimental local infection with anaerobic bacteria in granuloma pouches in rats; assay type: in vivo; conditions: 25 mg/kg, p.o., pouch exudate, Mean ± S.D. (n=3)
Procedure: Under ether anesthesia, male Wistar rats (7 weeks old) were injected subcutaneously on the back with 20 ml of germ-free air (sterilized by membrane filtration, 0.45 µm pore size) by means of a syringe. Continuously, an inflammatory reaction was induced by injecting one ml of sterile croton oil solution (1 % in olive oil) into the formed air pouch. After 2 days, the air was removed. On the eighth day, 0.5 ml of Bacteroides fragilis 2 culture (10^6 CFU/ml) were injected into bore granuloma pouches. Each compound was administered orally or subcutaneously at 2 hours after infection. […] During experiment, intake of food and water was free. It was known that the activity of the existing quinolonecarboxylic acid compounds against obligate anaerobic bacteria was very weak. […] This property is also one of excellent characters of the present comound.

Row | SMILES | MIC [1] [µg/mL] | MIC [2] [µg/mL] | MIC [3] [µg/mL] | MIC [4] [µg/mL] | MIC [5] [µg/mL] | MIC [6] [µg/mL] | MIC [8] [µg/mL] | MIC [10] [µg/mL] | MIC [11] [µg/mL] | MIC [12] [µg/mL] | MIC [13] [µg/mL] | MIC [14] [µg/mL] | MIC [15] [µg/mL] | MIC [16] [µg/mL] | MIC [17] [µg/mL] | MIC [18] [µg/mL] | MIC [19] [µg/mL] | MIC [20] [µg/mL] | MIC [21] [µg/mL] | MIC [22] [µg/mL] | other results
1 | NC1CCN(c2c(F)cc3c(=O)c(C(=O)O)cn(C4CC4)c3c2Cl)C1 (stereo not drawn) [Example 25, 7-(3-Amino-l-pyrrolidinyl)-8-chloro-l-cyclopropyl-6-fluoro-1,4-dihydro-4-oxo-3-quinolinecarboxylic acid] | 0.05 | 0.05 | 0.05 (≈ 0.137 µM) | 0.1 | 0.0125 (≈ 0.0342 µM) | 0.05 (≈ 0.137 µM) | 0.05 (≈ 0.137 µM) | 0.2 (≈ 0.547 µM) | 0.05 (≈ 0.137 µM) | 0.05 (≈ 0.137 µM) | 0.1 (≈ 0.273 µM) | 0.2 (≈ 0.547 µM) | 0.2 (≈ 0.547 µM) | 0.1 | 1.56 | 0.1 (≈ 0.273 µM) | 0.78 | 0.2 | 0.05 | 0.1 (≈ 0.273 µM) | MIC ([7]; Klebsiella pneumoniae): 0.0125 µg/mL (≈ 0.0342 µM); MIC ([9]; Citrobacter freundii): 0.0125 µg/mL (≈ 0.0342 µM); MIC [23]: 0.1 µg/mL (≈ 0.273 µM); MIC [24]: 0.05 µg/mL (≈ 0.137 µM); MIC [25]: 0.013 µg/mL (≈ 0.0355 µM); MIC [26]: 0.05 µg/mL (≈ 0.137 µM); MIC [27]: 0.05 µg/mL (≈ 0.137 µM); MIC [28]: 0.025 µg/mL (≈ 0.0683 µM); MIC [29]: 0.2 µg/mL (≈ 0.547 µM); MIC [30]: 0.78 µg/mL (≈ 2.13 µM); MIC [31]: 0.05 µg/mL (≈ 0.137 µM); Frequency of spontaneous resistant mutants ([32]; Conc. of Drugs 2MIC): 2.9 × 10^-8; Frequency of spontaneous resistant mutants ([32]; Conc. of Drugs 4MIC): <2.9 × 10^-9; Viable cells count (log) / ml ([33]; 6 hr): 4.6 ± 0.31 (log) / ml; Viable cells count (log) / ml ([33]; 24 hr): 4.5 ± 0.15 (log) / ml
2 | CC1CN(c2c(F)cc3c(=O)c(C(=O)O)cn(C4CC4)c3c2Cl)CCN1 (stereo not drawn) [Ref.2, 8-Chloro-1-cyclopropyl-6-fluoro-1,4-dihydro-7-(3-methyl-1-piperazinyl)-4-oxo-3-quinolinecarboxylic acid] | 0.1 | 0.1 | 0.39 (≈ 1.03 µM) | 0.39 | 0.0125 (≈ 0.0329 µM) | 0.05 (≈ 0.132 µM) | 0.05 (≈ 0.132 µM) | 0.2 (≈ 0.527 µM) | 0.05 (≈ 0.132 µM) | 0.2 (≈ 0.527 µM) | 0.39 (≈ 1.03 µM) | 0.78 (≈ 2.05 µM) | 0.39 (≈ 1.03 µM) | 0.2 | 3.13 | 0.39 (≈ 1.03 µM) | 3.13 | 0.78 | 0.2 | 0.39 (≈ 1.03 µM) | MIC ([7]; Klebsiella pneumoniae KY(GN)6445, 10^6 cells/ml, Gram -, read-out: MIC): 0.025 µg/mL (≈ 0.0658 µM); MIC ([9]; Citrobacter freundii IID 976, 10^6 cells/ml, Gram -, read-out: MIC): 0.05 µg/mL (≈ 0.132 µM); MIC [23]: 0.39 µg/mL (≈ 1.03 µM); MIC [24]: 0.05 µg/mL (≈ 0.132 µM); MIC [25]: 0.025 µg/mL (≈ 0.0658 µM); MIC [26]: 0.1 µg/mL (≈ 0.263 µM); MIC [27]: 0.05 µg/mL (≈ 0.132 µM); MIC [28]: 0.1 µg/mL (≈ 0.263 µM); MIC [29]: 1.56 µg/mL (≈ 4.11 µM); MIC [30]: 1.56 µg/mL (≈ 4.11 µM); MIC [31]: 0.2 µg/mL (≈ 0.527 µM); Frequency of spontaneous resistant mutants ([32]; Conc. of Drugs 4MIC): 5.1 × 10^-8; Viable cells count (log) / ml ([33]; 6 hr): 5.1 ± 0.21 (log) / ml; Viable cells count (log) / ml ([33]; 24 hr): 4.5 ± 0.55 (log) / ml
